Experimental data reported in US7612208B2, “Crystalline form of the salt of 4-(3-chloro-4-(cyclopropylaminocarbonyl)aminophenoxy)-7-methoxy-6-quinolinecarboxamide or the solvate of the salt and a process for preparing the same” (Eisai R&D Management Co., Ltd., priority 2003, dated 2009).
Each block holds one molecule with its values, some of them ahead of it.

What was measured:
[1] = Temperature-controlled powder X-ray diffraction; format: physicochemical; settings: 2° C./min
Protocol: Powder X-ray diffraction was conducted under the measurement conditions similar to those in 4. (powder X-ray diffraction) of Test Examples 3. The temperature was increased according to the following conditions. • Temperature controller: PCT-20 (manufactured by Rigaku Denki K.K.) • Rate for the increase of the temperature: 2° C./min • Measurement temperatures: 30° C., 40° C., 60° C., 80° C., 120° C., 140° C., 180° C., 200° C., 205° C., 210° C. and 215° C. [Results]

[2] = molecular target: c-Kit kinase (Homo sapiens, UniProt P10721); settings: cited from earlier work
[3] = Study of pharmacokinetics in beagle dogs; format: in vivo; settings: mean ± standard error; for BA: beagle dogs n=3, oral 3 mg/kg as free form vs single intravenous administration of free form
Protocol: A crystalline form of the free from of the carboxamide (obtained in Preparation Example 1), a crystalline form of the hydrobromide of the carboxamide (obtained in Example 2) and a crystalline form of the mesylate of the carboxamide (Form A) (obtained in Example 5) were grounded in a mortar, encapsulated in a gelatin capsule, and then administered orally to beagle dogs (n=3). After administration, 10 mL of water was further administered orally. The dose was set such that it was equivalent to 3 mg/kg as a free form, and the beagle dogs were fasted from the day before administration, and fed again 8 hours after the administration.
To calculate bioavailability (BA), a test was conducted using a single intravenous administration. More specifically, a crystalline form of the free from of the carboxamide was dissolved in a solution containing 10% dimethyl sulfoxide, 50% polyethylene glycol 400 and 40% 0.1 M aqueous solution of hydrochloric acid and administered intravenously through cephalic vein of the foreleg.
The plasma concentration of the carboxamide was measured by HPLC-UV method after sampling blood from cephalic vein of the foreleg. Based on the concentration, pharmacokinetic parameters were calculated for each individual by the moment method. Further, based on the calculated parameters, the mean value and standard error thereof were calculated.

[4] = Test for measuring dissolution rate (rotating disk method); format: physicochemical; settings: 2nd fluid pH 6.8, 37° C., 50 rpm
Protocol: The dissolution rates of the following crystals were measured under the conditions described below by the rotating disk method (see, J. H. Woods et al., J. Pharm. Soc., 54, 1068 (1955)): a crystalline form of the free carboxamide (obtained in Preparation Example 1), a crystalline form of the hydrochloride of the carboxamide (obtained in Example 1), a crystalline form of the hydrobromide of the carboxamide (obtained in Example 2), a crystalline form of the methanesulfonate (hereunder, referred to as “mesylate”) of the carboxamide (Form A) (obtained in Example 5), a crystalline form of the mesylate of the carboxamide (Form C) (obtained in Example 7) and a crystalline form of the ethanesulfonate (hereunder, referred to as “esylate”) (Form β) (obtained in Example 12). The dissolution rates were calculated based on a range in which linearity was maintained in the relation between concentration and time at the initial stage of dissolution.
(Rotating Disk Method Conditions)
• Solvent: “2nd fluid” (pH 6.8, 500 mL) as described in Japanese Pharmacopoeia 14th Edition, General Tests (disintegration test) • Temperature: 37° C. • Disk rotation speed: 50 rpm • Area of powder contacting with solvent on disk: 1 cm^2 • Sampling amount: approx. 1 mL (HPLC Conditions) • Column: Cadenza CD-18 (Imtakt Corporation; inner diameter 4.6 mm, Column length 100 mm, particle size 3 μm) • Column temperature: 40° C. • Flow rate: 1.0 mL/min • Mobile phase:
Concentration of solution B: 20% • Injection amount: 100 μL • Detection: ultraviolet absorbance photometer (wavelength: 252 nm) • Temperature of auto sampler: 25° C. [Results]

[5] = system: angiogenesis; settings: free-form product; Example 368 of WO 02/32872; cited from earlier work
[6] = Evaluation of hygroscopicity (storage 1 week; water content, powder X-ray diffraction); format: physicochemical
Protocol: The hygroscopicity and solid stability of a crystalline form of the mesylate of the carboxamide (Form A) (obtained in Example 5), a crystalline form of the mesylate of the carboxamide (Form C) (obtained in Example 7), a crystalline form of the acetic acid solvate of the mesylate of the carboxamide (Form I) (obtained in Example 10) and a crystalline form of the esylate of the carboxamide (Form β) (obtained in Example 12) were measured under the following conditions.
1. Storage Conditions for the Hygroscopicity Test (Period: 1 Week)
a-1. 25° C., relative humidity 75%
b-1. 25° C., relative humidity 93%
Analysis was carried out according to “X-Ray Powder Diffraction Method” described in Japanese Pharmacopoeia 14th Edition, General Tests (B-614 to 619) under the following measurement conditions. • Apparatus: RINT-2000 (manufacture by Rigaku Denki K. K.) • X-ray: CuKα ray • Monochrometer: curved crystal monochrometer • Goniometer: vertical goniometer • Counter: scintillation counter • Applied voltage: 40 kV • Charging current: 200 mA • Scan speed: 5°/min • Scan axis: 2θ/θ • Scan range; 2θ+5° to 40° • Divergent slit: 0.5° • Scattering slit: 0.5° • Receiving slit: 0.3 mm 5. Measurement of Water Content
Measurement was carried out according to the Water Determination as described in Japanese Pharmacopoeia 14th Edition, General Tests (B-318 to 331) using 6 to 10 mg of each crystal.

[7] = Evaluation of solid stability (storage 2 weeks; total impurity by HPLC, water content, powder X-ray diffraction); format: physicochemical
Protocol: 2. Storage Conditions for the Solid Stability Test (Period: 2 Weeks) a-2. −20° C. (well closed) b-2. 25° C., light irradiation (1000 1×; shading with aluminum foil, well closed) c-2. 25° C., light irradiation (1000 1×; well closed) […]
e-2. 60° C. (well closed except the following case: slightly open in the case of a crystalline form of the acetic acid solvate of the mesylate (Form I))
3. Method for Measuring the Impurity Amount by HPLC
After storage, the sample solution was prepared by adding a mixed solvent of water and methanol (3:1) to each crystal at 0.1 mg/mL as final concentration.
Tests were conducted by the HPLC method for these sample solutions under the measurement conditions described below, and the eluted peak areas were measured to determine the total impurity amount by the relative area method (impurities of 0.05% or more were counted).
(Formula for Calculating Total Impurity Amount)
• Individual impurity amount (%)=(the peak area for the individual impurity)×100/{(the peak area for carboxamide)+(sum of the peak areas for impurities)} • Total impurity amount (%)=sum of individual impurity amounts (HPLC Measurement Conditions) • Column: Mightysil RP-18 GP (Kanto Kagaku; inner diameter 4.6 mm, column length 150 mm, particle size 3 μm) • Column temperature: constant temperature in vicinity of 40° C. • Flow rate: 1.0 mL/min • Mobile phase:
Solution B: CH3CN:H2O:HClO4=900:100:1 (v/v/v) • Gradient conditions […]
• Injection amount: 10 μL • Detection: ultraviolet absorbance photometer (wavelength: 252 nm) • Temperature of auto sampler: constant temperature in vicinity of 10° C. 4. Powder X-ray Diffraction […]
Measurement of Water Content

[8] = Powder X-ray diffraction with a treatment of humidification; format: physicochemical; settings: room temperature
Protocol: Powder X-ray diffraction was measured under the measurement conditions similar to those in 4. (powder X-ray diffraction) of Test Example 3. Humidification was carried out using a humidity control unit HUM-1A (manufactured by Rigaku Denki K. K.)), to sequentially adjust relative humidity to 3%, 30%, 50%, 60%, 70%, 75%, 80% and 85% at room temperature.

[9] = 25° C., relative humidity 75% or 93%, 1 week
[10] = beagle dogs n=3, oral, gelatin capsule, 3 mg/kg as free form, fasted
[11] = a-2: −20° C. (well closed), 2 weeks
[12] = b-2: 25° C., light irradiation 1000 lx, shading with aluminum foil, well closed, 2 weeks
[13] = c-2: 25° C., light irradiation 1000 lx, well closed, 2 weeks
[14] = d-2: 40° C., relative humidity 75%, 2 weeks
[15] = e-2: 60° C., 2 weeks (well closed; slightly open for Form I)

c-Kit kinase, sequence (P10721 26-976): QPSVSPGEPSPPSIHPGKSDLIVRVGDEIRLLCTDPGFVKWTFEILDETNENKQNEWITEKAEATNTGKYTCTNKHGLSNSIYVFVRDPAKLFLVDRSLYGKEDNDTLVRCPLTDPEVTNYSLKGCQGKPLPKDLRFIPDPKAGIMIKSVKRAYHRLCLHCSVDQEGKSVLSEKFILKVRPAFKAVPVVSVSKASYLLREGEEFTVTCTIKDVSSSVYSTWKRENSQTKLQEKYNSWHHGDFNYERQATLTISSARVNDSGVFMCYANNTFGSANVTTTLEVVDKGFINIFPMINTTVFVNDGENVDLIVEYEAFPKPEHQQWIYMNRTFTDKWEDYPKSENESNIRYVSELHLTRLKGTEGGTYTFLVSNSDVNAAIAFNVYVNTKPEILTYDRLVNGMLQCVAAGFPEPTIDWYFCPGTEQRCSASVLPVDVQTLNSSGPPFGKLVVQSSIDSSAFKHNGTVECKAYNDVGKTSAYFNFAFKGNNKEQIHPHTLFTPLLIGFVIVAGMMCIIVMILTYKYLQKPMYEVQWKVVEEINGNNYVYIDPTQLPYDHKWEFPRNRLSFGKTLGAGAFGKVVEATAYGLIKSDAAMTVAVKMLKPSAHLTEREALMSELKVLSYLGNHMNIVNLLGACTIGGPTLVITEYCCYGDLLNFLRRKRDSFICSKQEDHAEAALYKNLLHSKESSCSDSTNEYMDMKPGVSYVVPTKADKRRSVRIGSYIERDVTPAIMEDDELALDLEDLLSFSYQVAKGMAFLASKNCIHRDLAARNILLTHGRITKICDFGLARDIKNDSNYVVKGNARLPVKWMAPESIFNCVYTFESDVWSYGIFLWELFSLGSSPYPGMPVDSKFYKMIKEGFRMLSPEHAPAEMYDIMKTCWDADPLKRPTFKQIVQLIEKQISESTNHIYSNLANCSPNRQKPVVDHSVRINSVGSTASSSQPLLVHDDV

- crystal transition on heating ([1]; temperatures from 30° C. to 80° C.): crystal transition was not observed
SMILES: COc1cc2nccc(Oc3ccc(NC(=O)NC4CC4)c(Cl)c3)c2cc1C(N)=O.CS(=O)(=O)O.C[S+](C)[O-] [Dimethyl Sulfoxide Solvate of Methanesulfonate of 4-(3-chloro-4-(cyclopropylaminocarbonyl)aminophenoxy)-7-methoxy-6-quinolinecarboxamide]
- crystal transition on heating ([1]; temperatures of 120° C. or more): transition to a crystalline form of the mesylate (Form C) was observed

- BA [3]: 9.1 ± 0.4%
- AUC(0-t) ([3]; dog, plasma, beagle dogs n=3, oral, gelatin capsule, 3 mg/kg as free form, fasted, read-out: AUC0-24hr): 600 ng·h/mL
- Cmax ([3]; dog, plasma, beagle dogs n=3, oral, gelatin capsule, 3 mg/kg as free form, fasted, read-out: Maximum plasma concentration (Cmax)): 53.3 ± 9.9 ng/mL
- concentration at 24 h ([3]; dog, plasma, beagle dogs n=3, oral, gelatin capsule, 3 mg/kg as free form, fasted, read-out: plasma concentration after 24 hours (C24hr)): 24 ± 9 ng/mL
- Tmax ([3]; dog, plasma, beagle dogs n=3, oral, gelatin capsule, 3 mg/kg as free form, fasted, read-out: time to reach maximum plasma concentration (Tmax)): 1.17 ± 0.4 h
- dissolution rate [4]: 0.8 μg/min/cm^2
SMILES: COc1cc2nccc(Oc3ccc(NC(=O)NC4CC4)c(Cl)c3)c2cc1C(N)=O [free form, 4-(3-chloro-4-(cyclopropylaminocarbonyl)aminophenoxy)-7-methoxy-6-quinolinecarboxamide]
- inhibitory action for c-Kit kinase [2]: strong inhibitory action
- angiogenesis inhibition [5]: excellent angiogenesis inhibition

- change of water content [6, 9]: did not change remarkably
- hygroscopicity [6, 9]: not observed
- water content ([6]; a-1: 25° C., relative humidity 75%, 1 week): 0.6%
- water content ([6]; b-1: 25° C., relative humidity 93%, 1 week): 0.7%
- water content ([6]; hygroscopicity test, initial): 0.7%
- BA [3]: 46.2 ± 5.9%
- AUC0-24hr [3, 10]: 3000 ± 400 ng·h/mL
- Maximum plasma concentration (Cmax) [3, 10]: 397.1 ± 100.1 ng/mL
- plasma concentration after 24 hours (C24hr) [3, 10]: 17.1 ± 2.5 ng/mL
- time to reach maximum plasma concentration (Tmax) [3, 10]: 1.67 ± 0.3 h
- dissolution rate [4]: 11.8 μg/min/cm^2
- total impurity [7, 11]: 3.90%
- water content [7, 11]: 0.0%
- total impurity [7, 12]: 3.95%
- water content [7, 12]: 0.0%
- total impurity [7, 13]: 4.23%
- water content [7, 13]: 0.1%
- total impurity [7, 14]: 3.90%
- water content [7, 14]: 0.2%
- total impurity [7, 15]: 3.97%
- water content [7, 15]: 0.2%
- water content ([7]; solid stability test, initial): 0.3%
- total impurity ([7]; solid stability test, initial, HPLC relative area): 4.02%
SMILES: COc1cc2nccc(Oc3ccc(NC(=O)NC4CC4)c(Cl)c3)c2cc1C(N)=O.CS(=O)(=O)O [mesylate (Form A), Methanesulfonate of 4-(3-chloro-4-(cyclopropylaminocarbonyl)aminophenoxy)-7-methoxy-6-quinolinecarboxamide]
- change in appearance and crystal transition [6, 9]: Neither remarkable change in appearance nor crystal transition was observed
- changes in water content and appearance, crystal transition ([7]; solid stability test, 2 weeks, all storage conditions): neither remarkable changes in water content and appearance nor crystal transition was observed

- crystal transition on humidification ([8]; relative humidity from 3% to 70%): did not exhibit a crystal transition
SMILES: COc1cc2nccc(Oc3ccc(NC(=O)NC4CC4)c(Cl)c3)c2cc1C(N)=O.CS(=O)(=O)O [mesylate (Form B), Methanesulfonate of 4-(3-chloro-4-(cyclopropylaminocarbonyl)aminophenoxy)-7-methoxy-6-quinolinecarboxamide]
- crystal transition on humidification ([8]; relative humidity of 75% and 80%): mixture of crystalline forms of the mesylate (Form B) and (Form C)
- crystal transition on humidification ([8]; relative humidity of 85%): complete transition to a crystalline form of the mesylate (Form C)
